Measured values: paper PMC10004634 (PLOS ONE, 2023)

Test system: TMD8 cells
Assay: SILAC phosphoproteomic analysis
Method: For differential SILAC encoding, both cells were grown in arginine- and lysine-deficient culture medium containing light (Arg0/Lys0) or heavy (Arg10/Lys8) isotopic forms of L-arginine and L-lysine (SILAC medium). […] For mass spectrometric analysis, phosphopeptide-enriched samples were loaded onto a reversed phase analytical column, resolved by an acetonitrile gradient using a nanoflow HPLC system and directly electrosprayed via a nanoelectrospray ion source into an LTQ-Orbitrap Velos mass spectrometer (Thermo Fisher Scientific). […] A false discovery rate (FDR) of 0.01 was selected for protein and peptide identification, and a posterior error probability of ≤0.1 for each peptide-to-spectral match was required. The resulting list of phosphosites exported from the MaxQuant software was filtered for class-I sites (only serine, threonine, or tyrosine assignments with a localization probability of ≥0.75) [33] and used for all subsequent biostatistical analysis. […] Gaussian regression analysis on the histogram plot of these log2-transformed ratios was performed using Sigmaplot (version 10.0; Systat Software Inc.). The obtained values for the mean and standard deviation across the whole quantitative dataset were used to determine thresholds for significant regulation of at least ±2.5 σ. […] Furthermore, only phosphosites conforming to this criterion and showing consistent regulation in both biological replicates were considered as regulated.

## CC#CC(=O)N1CC[C@@H](n2c(=O)n(-c3ccc(Oc4ccccc4)cc3)c3c(N)ncnc32)C1 [Tirabrutinib]
1 μM, 1 h
  reduction of ATF2 phosphorylation on Thr-69: approximately 50%
  reduction of ATF2 phosphorylation on Thr-71: approximately 50%
1 μM, 1 h, ratio <0.679
  number of downregulated phosphorylation sites: 138
1 μM, 1 h, ratio >1.472
  number of upregulated phosphorylation sites: 15
AKT1S1 S183
  Tirabrutinib/ctrl. rep. 1: 0.69
  Tirabrutinib/ctrl. rep. 2: 0.65
AKT1S1 S202
  Tirabrutinib/ctrl. rep. 1: 1.29
  Tirabrutinib/ctrl. rep. 2: 1.18
AKT1S1 S203
  Tirabrutinib/ctrl. rep. 1: 1.16
  Tirabrutinib/ctrl. rep. 2: 1.11
AKT1S1 S211
  Tirabrutinib/ctrl. rep. 1: 0.98
  Tirabrutinib/ctrl. rep. 2: 0.82
AKT1S1 T246
  Regulation of Phosphorylation Site: ↓
  Tirabrutinib/ctrl. rep. 1: 0.61
  Tirabrutinib/ctrl. rep. 2: 0.51
AKT1 S124
  Tirabrutinib/ctrl. rep. 1: 0.97
  Tirabrutinib/ctrl. rep. 2: 1.01
AKT1 S129
  Tirabrutinib/ctrl. rep. 1: 1.07
  Tirabrutinib/ctrl. rep. 2: 0.94
AKT2 S126
  Tirabrutinib/ctrl. rep. 1: 0.95
  Tirabrutinib/ctrl. rep. 2: 0.95
AKT2 T451
  Tirabrutinib/ctrl. rep. 1: 1.00
  Tirabrutinib/ctrl. rep. 2: 0.94
ATF2 S112
  Tirabrutinib/ctrl. rep. 1: 1.07
  Tirabrutinib/ctrl. rep. 2: 0.83
ATF2 T69
  Regulation of Phosphorylation Site: ↓
  Tirabrutinib/ctrl. rep. 1: 0.53
  Tirabrutinib/ctrl. rep. 2: 0.53
ATF2 T71
  Regulation of Phosphorylation Site: ↓
  Tirabrutinib/ctrl. rep. 1: 0.50
  Tirabrutinib/ctrl. rep. 2: 0.53
CARD11 S483
  Tirabrutinib/ctrl. rep. 1: 0.72
  Tirabrutinib/ctrl. rep. 2: 1.26
CARD11 S529
  Tirabrutinib/ctrl. rep. 1: 0.89
  Tirabrutinib/ctrl. rep. 2: 0.90
CARD11 S554
  Tirabrutinib/ctrl. rep. 2: 0.79
CARD11 S610
  Tirabrutinib/ctrl. rep. 1: 0.99
  Tirabrutinib/ctrl. rep. 2: 0.96
CARD11 S622
  Tirabrutinib/ctrl. rep. 1: 1.01
  Tirabrutinib/ctrl. rep. 2: 1.05
CARD11 S903
  Tirabrutinib/ctrl. rep. 1: 1.34
  Tirabrutinib/ctrl. rep. 2: 1.37
CARD11 S942
  Tirabrutinib/ctrl. rep. 1: 0.92
  Tirabrutinib/ctrl. rep. 2: 0.78
ELK1 S501
  Regulation of Phosphorylation Site: ↓
  Tirabrutinib/ctrl. rep. 1: 0.33
  Tirabrutinib/ctrl. rep. 2: 0.48
ERF S327
  Regulation of Phosphorylation Site: ↓
  Tirabrutinib/ctrl. rep. 1: 0.59
  Tirabrutinib/ctrl. rep. 2: 0.50
ERF T526
  Tirabrutinib/ctrl. rep. 1: 0.85
  Tirabrutinib/ctrl. rep. 2: 0.87
ETV3 S245
  Regulation of Phosphorylation Site: ↓
  Tirabrutinib/ctrl. rep. 1: 0.30
  Tirabrutinib/ctrl. rep. 2: 0.28
ETV3 S250
  Regulation of Phosphorylation Site: ↓
  Tirabrutinib/ctrl. rep. 1: 0.30
  Tirabrutinib/ctrl. rep. 2: 0.28
HSP27 S15
  Tirabrutinib/ctrl. rep. 1: 0.59
  Tirabrutinib/ctrl. rep. 2: 1.31
HSP27 S78
  Tirabrutinib/ctrl. rep. 1: 0.67
  Tirabrutinib/ctrl. rep. 2: 0.69
HSP27 S82
  Regulation of Phosphorylation Site: ↓
  Tirabrutinib/ctrl. rep. 1: 0.62
  Tirabrutinib/ctrl. rep. 2: 0.60
IKBKG S455
  Tirabrutinib/ctrl. rep. 1: 1.17
  Tirabrutinib/ctrl. rep. 2: 0.97
MAPK1 Y187
  Regulation of Phosphorylation Site: ↓
  Tirabrutinib/ctrl. rep. 1: 0.34
  Tirabrutinib/ctrl. rep. 2: 0.47
MAPK3 Y204
  Regulation of Phosphorylation Site: ↓
  Tirabrutinib/ctrl. rep. 1: 0.26
  Tirabrutinib/ctrl. rep. 2: 0.42
NHE1 S693
  Tirabrutinib/ctrl. rep. 1: 1.21
  Tirabrutinib/ctrl. rep. 2: 1.00
NHE1 S703
  Regulation of Phosphorylation Site: ↓
  Tirabrutinib/ctrl. rep. 1: 0.55
  Tirabrutinib/ctrl. rep. 2: 0.51
NHE1 S785
  Tirabrutinib/ctrl. rep. 1: 1.11
  Tirabrutinib/ctrl. rep. 2: 1.29
NHE1 S796
  Tirabrutinib/ctrl. rep. 1: 0.62
